# Measurements published in patent US8822182B2, “Chimeric antigen-specific T cell-activating polypeptides” (Mayo Foundation for Medical Education and Research, priority 2001, dated 2014).
# Read-outs that look alike come from different tables or passages of the source.
# Tests used:
# [1] = system: TAP deficient RMA-S targets; type: cell-based, mouse; conditions: ConA-activated CTL, 10 μM overnight; for sensitization of targets for killing by OVA257-specific CTL: FIG. 9 left panel; for sensitization of targets for killing by 2C-specific CTL: FIG. 9 middle panel
# [2] = system: TAP-deficient RMA-S target cells; type: cell-based, mouse; conditions: peptide epitope-activated CTL; for sensitization of targets for lysis by LCMV-specific CTL: FIG. 10C (right panel)
# [3] = system: TAP-deficient T2 target cells; type: cell-based, human
# [4] = system: TAP-expressing 221.A2 target cells; assay: 51Cr release cytotoxicity assay, human CEA-specific CTL line, 221.A2 targets; type: cell-based; conditions: TAP-competent targets, incubated overnight with peptide, FIG. 1A
# [5] = system: TAP-deficient T2 target cells; assay: 51Cr release cytotoxicity assay, human CEA-specific CTL line, T2 targets; type: cell-based; conditions: for effect of brefeldin-A (BFA) on sensitization of T2 cells: BFA 1 μg/ml, CEA-specific CTL, E:T 20:1, FIG. 4; for ability to sensitize target cells for CTL lysis: TAP-deficient targets, incubated overnight with peptide, FIG. 1B; for sensitizing activity after pre-incubation with trypsin: trypsin at 37° C., E:T 20:1, FIG. 2B; for capacity to sensitize targets for CTL lysis: 10 μM overnight, E:T 20:1, FIG. 2C
# [6] = system: TAP-competent cells expressing H-2K^b (L-K^b); assay: Immunofluorescence and confocal microscopy of H-2K^b/OVA257 complexes, TAP-competent cells; type: cell-based, mouse
# Description: (§1) T2/K^b or L-K^b cells were cultured overnight on poly-lysine treated glass coverslips. The culture medium was discarded, and the cells were gently washed with PBS. The cells were pre-incubated with serum-free AIM-V medium at 37° C. for 30 minutes and then incubated with peptide/TA solutions at the indicated concentrations for 12 hour at 37° C. After peptide loading, the cells were washed and fixed with 2% formaldehyde for 20 minutes at room temperature. For indirect immunofluorescence, fixed cell monolayers were permeabilized with 0.2% Triton X100 in PBS and incubated with PBS containing 5% goat serum to block non-specific protein binding sites. The cells were double-labeled with mouse monoclonal antibody 25D1.16 specific to OVA257/H-2K^b complex and rabbit polyclonal antibody TGN38 (TGN marker) or rabbit anti-calreticulin (ER marker), followed by 1 hour staining with FITC anti-mIgG and TR anti-rIgG as secondary antibodies. After washing, the coverslips were mounted for observation on glass slides using the Prolong Antifade Kit. The stained cells were examined and photographed with a Leica TCS-SL confocal laser-scanning microscope (Bensheim, Germany).
# Utilizing the monoclonal antibody 25D1.16 that specifically reacts with H-2K^b/OVA257 complexes and confocal microscopy, the formation and presence of this CTL epitope in permeabilized TAP-competent and TAP-deficient cells expressing H-2K^b was evaluated. […] These cells were also stained with an antibody specific for calreticulin which is localized within the ER.
# [7] = system: TAP-competent EL-4 cells; assay: Flow cytometry of surface H-2K^b/OVA257 complexes (25D1.16) with protease inhibitors, EL-4 cells; type: cell-based, mouse; conditions: antigen 10 μM overnight; for effect of furin inhibitor decRVKR-CMK on expression of surface H-2K^b/OVA257 complexes (decrease): decRVKR-CMK 60 μM, FIGS. 8A-8C; for effect of lactacystin on amount of surface H-2K^b/OVA257 complexes: lactacystin 10 μM, FIGS. 6A and 6B; for effect of pepstatin-A on amounts of surface peptide/MHC class I complexes (increase): pepstatin 100 μM, FIGS. 7A and 7B
# Description: (§2) The effects of protease inhibitors on antigen processing and presentation were evaluated by analysis of 25D1.16 staining on different antigen-pulsed EL-4 or T2/K^b cells using flow cytometric analysis. In brief, EL-4 or T2/K^b cells were washed twice with serum-free AIM-V medium (Life Technologies, Rockville, Md.), pre-treated with protease inhibitors (10 μM lactacycstin, 100 μM pepstatin or 60 μM decRVKR-CMK) for 30 minutes and then pulsed with equimolar concentrations of different (as indicated) peptides at 37° C. overnight with the continuous presence of the corresponding protease inhibitors. The serum-free AIM-V medium was used in order to exclude the potential involvement of serum proteases during the peptide-pulsing process. After washing the cells twice with FACS buffer (PBS (phosphate buffered saline) supplemented with 2% FBS and 0.2% sodium azide), peptide-loaded APC were stained with 25D1.16 antibody followed by FITC anti-mIgG for flow analysis. Untreated EL-4 and T2/K^b cells were pulsed with peptides and stained as controls.
# [8] = system: TAP-deficient T2/K^b cells; assay: Flow cytometry of surface H-2K^b/OVA257 complexes (25D1.16) with protease inhibitors, T2/K^b cells; type: cell-based, human; conditions: antigen 10 μM overnight; for effect of furin inhibitor decRVKR-CMK on expression of surface H-2K^b/OVA257 complexes (decrease): decRVKR-CMK 60 μM, FIGS. 8D-8F; for effect of lactacystin on level of surface H-2K^b/OVA257 complexes (increase): lactacystin 10 μM, FIGS. 6C and 6D; for effect of pepstatin-A on amounts of surface peptide/MHC class I complexes (increase): pepstatin 100 μM, FIGS. 7C and 7D
# Description: as §2
# The data described above indicate that TA can be processed in various cellular compartments to produce small peptide epitopes that subsequently associate with MHC class I molecules and the resulting peptide-MHC class I complexes are then transported to the cell surface. Antigen processing could take place: (1) in the cytoplasm, via proteasomal degradation followed by TAP transport; (2) within the ER, where peptide trimming via an aminopeptidase could occur; (3) in the trans-Golgi, where processing of antigens through proteases such as furin can occur; and/or (4) in early endocytic compartments, where peptides that could either bind to recycling MHC class I molecules or leak into other compartments of the MHC class I pathway can be generated. Utilizing antibody 25D1.16, we studied the effects of various inhibitors of antigen processing in the formation of H-2K^b/OVA257 surface complexes by peptides OVA257-HIVtat and HIVtat-OVA257.
# [9] = system: Murine dendritic cells (DC); assay: Persistence in dendritic cells: IFN-γ ELISA of OT-1 CTL cultured with pulsed DC; type: cell-based, mouse; conditions: DC pulsed 10 μM 2 hours, washed, further 48 hours, CTL:DC 10:1 for 24 hours, FIG. 14
# Description: Murine dendritic cells (DC) were prepared by culturing C57BL6 mouse (H-2^b) bone marrow […] in the presence of granulocyte macrophage colony stimulating factor (GM-CSF) and interleukin-4 (IL-4) by a method essentially the same as that described by Son et al. [(2002) J. Immunol. Meth. 262:145-157] except that non-adherent cells are removed from the cultures and discarded on day 2 of culture and no density gradient centrifugation step was used. Cells not adhering to the plastic tissue culture vessel at day 6 of culture were harvested and used as DC.
# DC were pulsed with either the TA HIVtat-OVA257 (see Table 2) or the peptide epitope OVA257, each at a concentration of 10 μM, for 2 hours at 37° C. The cells were then washed free of the TA or peptide epitope and incubated for a further 48 hours. They were then cultured with cells of the OT-1 CTL clone (specific for H-2K^b/OVA257) at a CTL to DC ratio of 10:1 for 24 hours. Supernatants were then removed from the cultures and the relative amounts of IFN-γ in various dilutions of each supernatant were measured by ELISA (FIG. 14). […] These findings indicate that a peptide epitope persists in DC for a longer period of time when taken up by DC in the form of a TA than when taken up by DC in the form of the peptide epitope per se.
# [10] = system: C57BL/6 mice; type: in vivo, mouse; conditions: 50 μg in IFA; spleen and lymph node cells cultured with IL-2 for 7 days, FIG. 12
# [11] = system: TAP-expressing 221.A2 target cells; type: cell-based, human
# [12] = system: TAP-deficient cells (T2/K^b); assay: Immunofluorescence and confocal microscopy of H-2K^b/OVA257 complexes, T2/K^b cells; type: cell-based, human
# Description: as §1
# An antibody specific for trans-Golgi network (TGN38) was used to test whether H-2K^b/OVA257 complexes could also be detected in the trans-Golgi network of cells incubated with TA peptides. […] In these cells, antibody TGN38 stained brightly a structure corresponding to the trans-Golgi. […] These observations reinforce the findings that TA peptides need to penetrate cells in order to create MHC class I/peptide complexes. In addition, these complexes are observed in both the ER and trans-Golgi, even in TAP-deficient cells.
sequence,measurement,setting,value
"IKAVYNFATCG [LCMV, reference compound]",sensitization of targets for lysis by LCMV-specific CTL,[1]; FIG. 9 right panel,only the short minimal epitope was effective
same,sensitization of targets for lysis by LCMV-specific CTL,[2],relatively high amount of the peptide epitope required to sensitize
IKAVYNFATCGVRVVSIYRYYGLVRVVSIINFEKLAAARKKRRQRRR [TA3-C],sensitization of targets for killing by OVA257-specific CTL,[1],much less effective
same,sensitization of targets for killing by 2C-specific CTL,[1],much less effective
same,effectiveness in sensitizing RMA-S targets relative to TA3-A (less effective),"[2]; E:T 10:1, FIG. 10",at least 100 fold
same,"sensitization of targets for lysis by CTL specific for all three peptide epitopes (OVA257, 2C, LCMV)","[2]; E:T 10:1, FIG. 10",also sensitized the RMA-S targets for lysis
"IMDQVPSFV [gp100209, reference compound]",effect of brefeldin-A (BFA) on sensitization of T2 cells,[3],did not block
"IMIGVLVGV (epitope) [CEA691, reference compound]",ability to sensitize target cells for CTL lysis,[4],"similar, if not identical, activities"
same,effect of brefeldin-A (BFA) on sensitization of T2 cells,[5],did not block
same,ability to sensitize target cells for CTL lysis,[5],"similar, if not identical, activities"
same,effect of competitor peptide HBc18-27 on sensitization of target cells for CTL lysis,"[5]; antigen 1 μM, 30 minutes, E:T 20:1, FIG. 2A",efficient at inhibiting the sensitization of target cells for CTL lysis by peptide CEA691
same,sensitizing activity after pre-incubation with trypsin,[5]; antigen 1 μM,did not modify this peptide's sensitizing activity
IMIGVLVGVAAARKKRRQRRR [CEA691-HIVtat],ability to sensitize target cells for CTL lysis,[4],"similar, if not identical, activities"
same,ability to sensitize target cells for CTL lysis,[5],"similar, if not identical, activities"
same,sensitizing activity after pre-incubation with trypsin,[5]; antigen 1 μM,lost most of its activity
IMIGVLVGVKKK [CEA691-KKK],capacity to sensitize targets for CTL lysis,[5],"none of peptides CEA691-KKK, CEA691-RRR or CEA691-RKK were able to sensitize"
IMIGVLVGVRKK [CEA691-RKK],capacity to sensitize targets for CTL lysis,[5],"none of peptides CEA691-KKK, CEA691-RRR or CEA691-RKK were able to sensitize"
IMIGVLVGVRRR [CEA691-RRR],capacity to sensitize targets for CTL lysis,[5],"none of peptides CEA691-KKK, CEA691-RRR or CEA691-RKK were able to sensitize"
RKKRRQRRRAAAIMIGVLVGV [HIVtat-CEA691],effect of brefeldin-A (BFA) on sensitization of T2 cells,[5],effective in blocking
RKKRRQRRRAAASIINFEKL [HIVtat-OVA257],presence of H-2K^b/OVA257 complexes in permeabilized cells,[6]; 25D1.16 staining,abundant
same,H-2K^b/OVA257 complexes within the ER,[6]; 25D1.16 superimposed with calreticulin staining,abundant H-2K^b/OVA257 complexes were present within the ER
same,effect of furin inhibitor decRVKR-CMK on expression of surface H-2K^b/OVA257 complexes (decrease),[7],no effect was observed
same,effect of lactacystin on amount of surface H-2K^b/OVA257 complexes,[7],did not have an effect
same,effect of pepstatin-A on amounts of surface peptide/MHC class I complexes (increase),[7],did not have an appreciable effect
same,effect of furin inhibitor decRVKR-CMK on expression of surface H-2K^b/OVA257 complexes (decrease),[8],no effect was observed
same,effect of lactacystin on level of surface H-2K^b/OVA257 complexes (increase),[8],did not have an appreciable effect
same,effect of pepstatin-A on amounts of surface peptide/MHC class I complexes (increase),[8],did not have an appreciable effect
same,IFN-γ produced by OT-1 CTL cultured with pulsed DC,[9],a high level of IFN-γ was produced
RKKRRQRRRAAASVYDEFFVWLKVKRLPYLGWLVFKVKRSGPSNTPPEI [TA5],"peptide epitope-specific cytotoxic activity of effector cells from immunized mice (E1A, P1A, TRP-2 pulsed versus unpulsed RMA-S targets)",[10],significant peptide epitope-specific cytotoxic activity was detected
RKKRRQRRRAAASVYDEFFVWLVRVVLPYLGWLVFVRVVSGPSNTPPEI [TAG],"peptide epitope-specific cytotoxic activity of effector cells from immunized mice (E1A, P1A, TRP-2 pulsed versus unpulsed RMA-S targets)",[10],no significant cytotoxic activity
RKKRRQRRRIKAVYNFATCGRVKRSIINFEKLRVKRSIYRYYGL [TA3-D],sensitization of targets for lysis by LCMV-specific CTL,[2],less effective
same,sensitization of targets for lysis by OVA257-specific CTL,[2]; FIG. 10 left panel,as effective as the others
same,sensitization of targets for lysis by 2C-specific CTL,[2]; FIG. 10 middle panel,as effective as the others
RQIKIWFPNRRMKWKKAEIDLIMDQVPFSVLRTED [AntpHD-gp100209],sensitization of targets for lysis by gp100209-specific CTL clone,[11],efficiently sensitized
same,effect of brefeldin-A (BFA) on sensitization of T2 cells,[3],effective in blocking
same,sensitization of targets for lysis by gp100209-specific CTL clone,[3],efficiently sensitized
SIINFEKLAAARKKRRQRRR [OVA257-HIVtat],amount of intracellular H-2K^b/OVA257 complexes,[12]; 25D1.16 staining,High amounts of intracellular H-2K^b/OVA257 complexes
same,localization of H-2K^b/OVA257 complexes to the trans-Golgi,[12]; 25D1.16 superimposed with TGN38 staining,majority of the H-2K^b/OVA257 complexes localized within the trans-Golgi
same,effect of furin inhibitor decRVKR-CMK on expression of surface H-2K^b/OVA257 complexes (decrease),[7],about 10 fold
same,effect of lactacystin on amount of surface H-2K^b/OVA257 complexes,[7],did not have an effect
same,effect of pepstatin-A on amounts of surface peptide/MHC class I complexes (increase),[7],3-5 fold
same,effect of furin inhibitor decRVKR-CMK on expression of surface H-2K^b/OVA257 complexes (decrease),[8],about 10 fold
same,effect of lactacystin on level of surface H-2K^b/OVA257 complexes (increase),[8],about 3 fold
same,effect of pepstatin-A on amounts of surface peptide/MHC class I complexes (increase),[8],3-5 fold
SIINFEKLRVKRIKAVYNFATCGRVKRSIYRYYGLAAARKKRRQRRR [TA3-B],sensitization of targets for killing by OVA257-specific CTL,[1],could effectively kill targets sensitized
same,sensitization of targets for killing by 2C-specific CTL,[1],could effectively kill targets sensitized
